Results published in patent publication EP0579622B1, “NEW PHENOL ETHERS, PROCESS FOR PRODUCING THE SAME AND MEDICAMENTS CONTAINING THESE COMPOUNDS” (BOEHRINGER MANNHEIM GMBH, priority 1991, dated 1992).

Assays:
[1] = test system: P388D.1 murine Makrophagen; assay: Inhibition of LDL-oxidation-dependent cholesterol ester formation in P388 macrophages; format: cell-based; conditions: 10 µm test substance, 18 Stunden, control without LDL 0.44, control + LDL 1.81
Procedure: (§1) Die neuen Phenolether wirken LDL-protektiv. Bei Inkubation des LDL it Redoxmetallen hemmen sie die Bildung von thiobarbitursäure-reaktiven Lipidperoxiden (Tab. 1), bei der Oxidation des LDL durch Lipoxydase wird eine selektive Hemmwirkung deutlich (Tab. 2). Unter Testbedingungen, die zu einem wirksamen LDL-Schutz führen, wird die Cholesterinesterbildung in kultivierten Makrophagen gehemmt (Tab. 3).
125 µg/ml LDL-Protein wurde in F 10-Medium +1 µM Cu⁺⁺ für 5 Stunden inkubiert, um LDL-Antioxidantien zu depletieren. Dann wurden P388D.1 murine Makrophagen (1 x 10⁶ Zellen/ml) in F 10-Medium + 10 % FCS für 18 Stunden mit diesem Ansatz weiter inkubiert. Unter diesen Versuchsbedingungen bleibt das Verhältnis freies Cholesterin (FC)/Protein konstant bei 0.2 µg/mg, während die Cholesterinester in Abhängigkeit von LDL im Medium in den P388D.1 Makrophagen ansteigen, hier ausgedrückt als Anstieg des Verhältnisses von Cholesterinester/freiem Cholesterin […]. Tabelle 4

[2] = test system: arteriosklerotischen Arterienwandgewebe; assay: Reduction of LDL catabolism in arteriosclerotic arterial wall tissue (131J-TDS-LDL incorporation); format: in vivo; conditions: cholesterol-fed Kaninchen, 0.2 % Testsubstanz in diet for 10 Tage, 24 Stunden after LDL infusion, thorakale Aorta; mean ± SEM (range); control 65.7 ± 3.9
Text: Beim arteriosklerotischen Kaninchen ist die Wirkung der neuen Phenolether direkt am arteriosklerotischen Plaque nachzuweisen. 131I-TDS-LDL, ein Radioiod-LDL, das von den Zellen nach oxydativer Modifikation aufgenommen wird, akkumuliert nach i.v. Gabe massiv im Plaquegewebe. Die neuen Phenolether hemmen signifikant und massiv den LDL-Katabolismus und damit die Cholesterinüberladung der Arterienwandzellen. Daraus resultiert langfristig die Hemmung des Wachstums der Läsionen (Tab. 4).
Jeweils 6 Kaninchen in der Kontrollgruppe und Bsp.l-Gruppe, bzw. 3 Kaninchen in der Probucol-Gruppe für 3 Monate mit 0.5 % Cholesterin-fettreicher Kaninchendiät gefüttert. Die Tiere der verschiedenen Gruppen haben S-Cholspiegel von 1028±99 (771-1358) - 1155±200 (655-1787) mg % am Ende der Fütterungsphase und- ein Körpergewicht von 3050-3680 g erreicht. Die Tiere erhalten dann für 10 Tage 0.2 % Testsubstanz in der fettreichen Diät und anschließend eine Infusion von ¹³¹J-Deoxysorbitol-LDL. Der Einbau von ¹³¹J-Deoxysorbitol in den Arterienwandzellen erfolgt ganz überwiegend in der arteriosklerotischen Läsion und ermöglicht die Quantifizierung des LDL-Umsatzes in den Zellen. 24 Stunden nach der Infusion des LDL werden die Tiere getötet und die thorakale Aorta präpariert. […]

[3] = test system: LDL; assay: Inhibition of Cu++-dependent LDL oxidation (TBARS formation); format: biochemical; conditions: 10 µM Testsubstanz, 125 µg/ml LDL-protein + 10 µM Cu++, 37° C
Procedure: as §1
125 µg/ml LDL-protein + 10 µM Cu⁺⁺ wurden bei 37° C in 2 ml TN-Puffer (20 mM Tris ph 8, 150 mM NaCl) in An- und Abwesenheit von 10 µM Testsubstanz inkubiert. Die Bildung von LDL-Oxidationsprodukten wurde anhand thiobarbitursäurereaktiver Substanzen (TBARS) bei OD532 16 und 23 Stunden nach Beginn der Inkubation gemessen. Tabelle 2

[4] = biological target: T1, Lipoxydase aus Sojabohne (Glycine max, UniProt P08170); assay: Inhibition of LDL oxidation by lipoxydase (diene formation at A 234); format: biochemical; conditions: 100 µg LDL-Protein, 500 U/ml Lipoxydase, 37° C, 0-10 µM Testsubstanz, diene formation over 3 h
T1 construct: purchased Sigma, München
T1 sequence (P08170 1-839): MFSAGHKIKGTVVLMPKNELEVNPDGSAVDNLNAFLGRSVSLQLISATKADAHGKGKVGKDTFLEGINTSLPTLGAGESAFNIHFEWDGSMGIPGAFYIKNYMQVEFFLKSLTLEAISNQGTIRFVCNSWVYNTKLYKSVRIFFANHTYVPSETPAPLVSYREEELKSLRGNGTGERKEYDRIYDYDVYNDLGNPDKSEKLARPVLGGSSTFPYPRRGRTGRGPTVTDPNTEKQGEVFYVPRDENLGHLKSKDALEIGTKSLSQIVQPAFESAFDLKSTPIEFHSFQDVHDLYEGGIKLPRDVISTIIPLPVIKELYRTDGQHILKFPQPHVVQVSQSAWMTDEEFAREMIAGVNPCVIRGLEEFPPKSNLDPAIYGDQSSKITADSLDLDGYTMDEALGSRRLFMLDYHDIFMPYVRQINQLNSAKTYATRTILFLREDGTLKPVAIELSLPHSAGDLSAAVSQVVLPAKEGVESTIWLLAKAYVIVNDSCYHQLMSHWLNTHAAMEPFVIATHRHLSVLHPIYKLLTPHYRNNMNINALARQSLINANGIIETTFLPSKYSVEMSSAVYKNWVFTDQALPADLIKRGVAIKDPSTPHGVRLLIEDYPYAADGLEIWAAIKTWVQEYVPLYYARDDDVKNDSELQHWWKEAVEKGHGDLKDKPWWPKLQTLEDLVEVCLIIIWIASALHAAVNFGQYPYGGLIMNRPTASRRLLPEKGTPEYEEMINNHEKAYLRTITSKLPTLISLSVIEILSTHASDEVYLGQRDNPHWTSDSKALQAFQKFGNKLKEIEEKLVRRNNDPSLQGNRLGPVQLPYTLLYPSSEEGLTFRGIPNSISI
Procedure: (Tab. 2). […] Die Bildung von […] aus der Oxidation […] des LDL wird bei A 234 über 3 h verfolgt und ist im Kontrollansatz ca. 0.075/h. Die Inhibition der Dienbildung dient als Maß der Lipoxydaseaktivität am LDL-substrat.

IC50 [4]	SMILES	CE/FC [1]	Einbau von 131J-TDS-LDLnorm±SEM ng/(mm³xdt/2) [2]	TBARS (OD 532) % ([3]; 16 Std., control 75)	TBARS (OD 532) % ([3]; 23 Std., control 100)
–	CC(C)(Sc1cc(C(C)(C)C)c(O)c(C(C)(C)C)c1)Sc1cc(C(C)(C)C)c(O)c(C(C)(C)C)c1 [Probucol, 4,4'[Isopropylidendithio]-bis(2,6-di-tert.-butyl), reference compound]	0.52 µg/µg	84 ± 7.5 (40-144) ng/(mm³xdt/2)	56%	88%
0.05 µM	CC(C)(C)c1cc(OCCCOc2cc(C(C)(C)C)c(O)c(C(C)(C)C)c2)cc(C(C)(C)C)c1O [Bsp. 1, 1,3-Bis-[4-hydroxy-3,5-di-tert.butyl-phenoxy]propan]	0.48 µg/µg	35 ± 1,9 (7-63) ng/(mm³xdt/2)	19%	76%
